Measured values: patent US11384126B2, “Compositions and methods for inhibiting DHHC-type palmitoyltransferases for cancer treatment” (DANA-FARBER CANCER INSTITUTE, INC., priority 2017, dated 2022)

What was measured:
DHHC proteins = conditions: literature: Jennings et al., 2008; cited from earlier work
MDA-MB-231 cells = test: apoptotic cell death, caspase-3 blot after chemotherapeutic agents; type: cell-based, human; conditions: for cell sensitivity to drug (apoptotic cell death, caspase-3) when zDHHC3 is ablated: MDA-MB-231, 25 hr, D3 shRNA vs control shRNA, Camptothecin 2 μM, Gefitinib 50 μM, 5-Fluorouracil 10 μg/ml
Experimental: Specifically, human breast carcinoma MDA-MB-231 cells were treated with Camptothecin (2 μM), Gefitinib (50 μM), 5-Fluorouracil (10 μg/ml), or DMSO (vehicle control), for 25 hr, lysed, then blotted for caspase-3, to assess apoptotic cell death. C=control shRNA; D3=stable DHHC3 ablation; D3^R=shRNA knockdown cells reconstituted with wild type DHHC3; D3^M=mutant DHHC3 (inactivated by C→S active site mutation).

ZDHHC3-ablated cells = test: senescence, C12FDG dye (β-galactosidase), flow cytometry; type: cell-based, human; conditions: summary statement
Experimental: To assess oxidative stress/reactive oxygen species (ROS), control and ZDHHC3-ablated tumor cells were trypsinized and suspended in complete medium. After PBS wash, cells were loaded with 2 μM CellROX dye in complete medium (37° C., 30 min). Cells were then washed twice with IX PBS, incubated in complete media (37° C., 30 min), washed twice again with 1×PBS, and then analyzed by flow cytometry. Similarly, senescence was measured by loading suspended control and ZDHHC3 ablated cells with C12FDG dye (30 min, 37° C.) in complete medium. The C12FDG dye is converted by intracellular β-galactosidase (elevated in senescent cells) to produce fluorescence, which was quantitated by flow cytometry.

MCP-1 = MCP-1 secretion (senescence-associated), western blotting; type: cell-based, human; conditions: MDA-MB-231 cells, FIG. 2C bottom panel
Experimental: Cells were cultured in DMEM and/or RPMI medium (Invitrogen, Grand Island, N.Y.) containing 10% FBS (Sigma, Mo.), HEPES and 1% penicillin-streptomycin (Invitrogen, Grand Island, N.Y.). […] Cultured cells were lysed in 1% Triton X-100, and total protein was quantified using BCA protein estimation kit. Western blotting and relative band intensity densitometry were described previously (Sharma et al., 2012 Cell Mol Life Sci, 69:2233-44).

[1] = tested on: ZDHHC3-ablated MDA-MB-231 cells; test: oxidative stress/ROS, CellROX dye, flow cytometry; type: cell-based, human; conditions: for effect on oxidative stress/ROS elevated by ZDHHC3 ablation: ZDHHC3-ablated MDA-MB-231 cells, CellROX; for direct and indirect effects of oxidative stress in ZDHHC3-ablated cells: summary statement
Experimental: To assess oxidative stress/reactive oxygen species (ROS), control and ZDHHC3-ablated tumor cells were trypsinized and suspended in complete medium. After PBS wash, cells were loaded with 2 μM CellROX dye in complete medium (37° C., 30 min). Cells were then washed twice with IX PBS, incubated in complete media (37° C., 30 min), washed twice again with 1×PBS, and then analyzed by flow cytometry. Similarly, senescence was measured by loading suspended control and ZDHHC3 ablated cells with C12FDG dye (30 min, 37° C.) in complete medium. The C12FDG dye is converted by intracellular β-galactosidase (elevated in senescent cells) to produce fluorescence, which was quantitated by flow cytometry. […] Increased oxidative stress can decrease tyrosine phosphatase activities (Tanner et al., 2011 Antioxid Redox Signal, 15:77-97), which can elevate tyrosine phosphorylation of focal adhesion kinase (FAK) and STAT3 proteins (Carballo et al., 1999 J Biol Chem, 274:17580-6; Ben et al., 2000 IUBMB Life, 50:291-9).

[2] = tested on: focal adhesion kinase (FAK); test: FAK tyrosine phosphorylation, immunoprecipitation and western blotting; type: cell-based, human; conditions: control and ZDHHC3-ablated MDA-MB-231 cells, FIG. 2C upper panels
Source text: Increased oxidative stress can decrease tyrosine phosphatase activities (Tanner et al., 2011 Antioxid Redox Signal, 15:77-97), which can elevate tyrosine phosphorylation of focal adhesion kinase (FAK) and STAT3 proteins (Carballo et al., 1999 J Biol Chem, 274:17580-6; Ben et al., 2000 IUBMB Life, 50:291-9).

| SMILES | cell sensitivity to drug (apoptotic cell death, caspase-3) when zDHHC3 is ablated (MDA-MB-231 cells) | increased senescence measured by β-galactosidase activity and/or SASP marker MCP-1 (ZDHHC3-ablated cells) | MCP-1 upregulation in ZDHHC3-ablated cells (MCP-1) | direct and indirect effects of oxidative stress in ZDHHC3-ablated cells [1] | effect on ZDHHC3 ablation-induced FAK tyrosine phosphorylation [2] | also measured |
| --- | --- | --- | --- | --- | --- | --- |
| O=C1C(=Cc2cc([N+](=O)[O-])ccc2O)Sc2ccccc21 [2-(2-hydroxy-5-nitro-benzylidene)-benzo[b]thiophen-3-one] |  |  |  |  |  | palmitoyltransferase activity of all DHHC proteins tested (DHHC proteins): inhibited |
| CCCCCCCCCCCCCCC(Br)C(=O)O (stereo not drawn) [2-bromopalmitate] |  |  |  |  |  | palmitoyltransferase activity of all DHHC proteins tested (DHHC proteins): inhibited |
| O=c1[nH]cc(F)c(=O)[nH]1 [5-Fu, 5-Fluorouracil] | enhanced |  |  |  |  |  |
| COc1cc2ncnc(Nc3ccc(F)c(Cl)c3)c2cc1OCCCN1CCOCC1 [Gefitinib] | not enhanced |  |  |  |  |  |
| CC(=O)N[C@@H](CS)C(=O)O [NAC, N-acetyl cysteine] |  | substantially reversed | markedly diminished | substantially reversed | substantially prevented | effect on oxidative stress/ROS elevated by ZDHHC3 ablation [1]: substantially prevented; effect on oxidative stress/ROS elevated by ZDHHC3 ablation ([1]; listed as N-acetyl cysteine): partial reversal |
| CC(C)c1c(C(=O)Nc2ccccc2)c(-c2ccccc2)c(-c2ccc(F)cc2)n1CC[C@@H](O)C[C@@H](O)CC(=O)O [atorvastatin] |  | substantially reversed | markedly diminished | substantially reversed | substantially prevented |  |
| CC[C@@]1(O)C(=O)OCc2c1cc1n(c2=O)Cc2cc3ccccc3nc2-1 [camptothecin] | enhanced |  |  |  |  | cell sensitivity to drug (caspase-3) with inactive DHHC3 (D3M) compared to fully functional DHHC3 (D3R) (MDA-MB-231 cells; zDHHC3-ablated MDA-MB-231 reconstituted, lane 10 vs lane 9): markedly enhanced |
| O=C(O)CCCCC1CCSS1 (stereo not drawn) [α-LA, α-lipoic acid] |  | substantially reversed | markedly diminished | substantially reversed | substantially prevented | effect on oxidative stress/ROS elevated by ZDHHC3 ablation [1]: substantially prevented |
